# Data published in publication PMC10255713, “Palm Fruit (Phoenix dactylifera L.) Pollen Extract Inhibits Cancer Cell and Enzyme Activities and DNA and Protein Damage” (Nutrients, 2023).
# Experiments:
# mushroom tyrosinase = assay: Tyrosinase inhibition assay; assay type: biochemical; details: for tyrosinase inhibition: highest concentration (5 mg/mL); for Tyrosinase inhibition activity IC50: mean ± SD, n = 3
# Description: To assess the inhibition of tyrosinase activity, a previously reported method was followed in this study. […] The mixture was incubated at 37 °C for 10 min, and then 1 mL of 50 units/mL mushroom tyrosinase liquefied in 0.2 M, pH 6.8 phosphate buffer was added. The resulting mixture was incubated for an additional 10 min, and the absorbance was measured at 475 nm. Ethanol (50%) was used as a blank, while 1 mL of deionized water was a control. The percentage of tyrosinase inhibition activity was calculated using Equation (1).
# [1] = system: Escherichia coli (ATCC 25922); assay: Agar-well diffusion susceptibility test; assay type: cell-based; details: E. coli
# Description: (§1) The pre-cultures of these pathogens were prepared through separate cultivation on Muller–Hinton broth at 37 °C for 24 h. […] After cultivation at 37 °C for 24 h, the developed inhibition zones (Halo zones) around wells indicated positive results. Amoxicillin (AX-25) and ampicillin (AM-10) were included as reference antibacterial drugs, while clotrimazole (CLT) and amphotericin-B (AmB) were applied as reference antifungal drugs.
# [2] = system: Pseudomonas aeruginosa (ATCC 27853); assay: Agar-well diffusion susceptibility test; assay type: cell-based; details: P. aeruginosa
# Description: as §1
# [3] = system: Salmonella typhimurium (ATCC 14028); assay: Agar-well diffusion susceptibility test; assay type: cell-based; details: S. typhimurium
# Description: as §1
# [4] = system: Staphylococcus aureus (ATCC 25923); assay: Agar-well diffusion susceptibility test; assay type: cell-based; details: S. aureus
# Description: as §1
# [5] = system: Streptococcus mutans (ATCC 25175); assay: Agar-well diffusion susceptibility test; assay type: cell-based; details: S. mutans
# Description: as §1
# [6] = DPPH free radical-scavenging assay; details: wet basis; mean ± SD, n = 3
# Description: The percentage inhibition of these radical compounds was determined using Equation (1):% Inhibition DPPH^• = (Abs. control − Abs. sample)/(Abs. control) × 100(1)
# The absorbance of the DPPH^• mixture without the test sample was considered as the Abs. control test. Absorbance was measured with a Varian CARY 50 Scan UV–VIS Spectrophotometer equipped with a Cary 50 Microplate Reader (Varian, Inc., Walnut Creek, CA, USA).
# [7] = ABTS free radical-scavenging assay; details: for ABTS maximum antioxidant activity: at 5 mg/mL
# Description: The ABTS^• radicals are employed as a model system to assess the antioxidant activity of the compounds [33]. The percentage inhibition of the ABTS^• radicals by the test compounds was calculated using Equation 1, as described earlier.
# [8] = Ferric-reducing/antioxidant power (FRAP) assay; details: for maximum FRAP value: at 5 mg/mL; for FRAP antioxidant inhibition activity IC50: wet basis, mean ± SD, n = 3
# Description: The FRAP reagent was prepared by mixing TPTZ (10 mM mixture) in 40 mM HCl, FeCl3 (20 mM), and acetate buffer (pH 3.6, 0.3 M) in a ratio of 1:1:10 (v/v/v). Next, 1 mL of the test sample was mixed with 2 mL of freshly prepared FRAP reagent, and the solutions were incubated for 30 min at 37 °C. The absorbance of the resulting mixture was measured at 593 nm. Deionized water was employed as a blank, and FeSO4 was used to establish the calibration curve. The FRAP values were expressed as µmol of Fe (II).
# [9] = Total antioxidant capacity (TAC) phosphomolybdate assay; details: for maximum total antioxidant capacity value (absorbance at 695 nm): at 5 mg/mL; for Total Antioxidant Capacity IC50: wet basis, mean ± SD, n = 3
# Description: Briefly, a reagent containing sodium phosphate (28 mM), sulfuric acid (0.6 M), and ammonium molybdate (4 mM) was added to 0.1 mL of the test samples, and the mixture was incubated at 95 °C for 90 min. After cooling, the absorbance of the mixture was measured at 695 nm. A higher absorbance value indicates a greater antioxidant capacity of the tested samples.
# [10] = Nitric oxide radical (NO) scavenging, Griess reaction; details: for NO-scavenging maximum inhibition: at 5 mg/mL; for Nitric Oxide scavenging IC50: wet basis, mean ± SD, n = 3
# Description: The reaction mixture contained 2 mL of sodium nitroprusside (10 mM), 0.5 mL of saline phosphate buffer, and 0.5 mL of the test samples. The mixtures were incubated for 150 min at 25 °C. After incubation, 0.5 mL of the reaction mixture was combined with 1 mL of sulfanilic acid reagent (0.33% in 20% glacial acetic acid). Following a 5 min wait, 1 mL of naphthyl ethylene diamine dihydrochloride (0.1%) was added. The mixtures were left for 30 min at room temperature, and the absorbance was measured at 540 nm. The percentage of nitrites was calculated using Equation 1, as described earlier.
# porcine α-amylase = target: T1, porcine α-amylase (Sus scrofa, UniProt P00690); assay: Porcine α-amylase inhibition assay; assay type: biochemical
# T1 sequence (P00690 16-511): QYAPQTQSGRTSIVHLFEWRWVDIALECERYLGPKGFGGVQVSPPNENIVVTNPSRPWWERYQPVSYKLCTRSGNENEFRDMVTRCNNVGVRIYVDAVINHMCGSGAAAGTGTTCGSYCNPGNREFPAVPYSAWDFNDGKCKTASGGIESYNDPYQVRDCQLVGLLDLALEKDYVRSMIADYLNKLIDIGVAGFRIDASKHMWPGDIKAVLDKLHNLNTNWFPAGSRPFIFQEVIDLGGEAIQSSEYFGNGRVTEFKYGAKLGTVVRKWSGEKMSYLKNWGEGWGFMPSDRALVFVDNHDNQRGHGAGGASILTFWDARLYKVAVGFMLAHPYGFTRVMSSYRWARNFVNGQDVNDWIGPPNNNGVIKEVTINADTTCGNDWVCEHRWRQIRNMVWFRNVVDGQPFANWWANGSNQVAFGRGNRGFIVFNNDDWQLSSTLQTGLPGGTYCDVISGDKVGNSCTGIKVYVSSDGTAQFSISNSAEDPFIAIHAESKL
# Description: In this study, the inhibition activity of porcine α-amylase was evaluated following a previously reported method. […] The combination was incubated at 25 °C for a specific period, following which starch solution mixed with sodium phosphate (0.02 M pH 6.9) and sodium chloride (6 mM) was added and incubated at 25 °C for 10 min. After the incubation, 1 mL of dinitrosalicylic acid (color reagent) was included in the mixture at 100 °C for 10 min to stop the reaction, followed by chilling to 25 °C. The absorbance of the resulting combination was measured at 540 nm, after adding 1 mL of deionized water. The percentage of inhibition activity of porcine α-amylase was calculated using Equation (1).
# plasmid pBR322 DNA = assay: Free radical-induced (H2O2 + UV) DNA damage assay; assay type: biochemical
# Description: Once the reaction was completed, the tested samples were electrophoresed through a polysaccharide agarose 0.8% gel, and we stained the electrophoresed gel with ethidium bromide. The electrophoresed gel was analyzed, and we captured photographs of the electrophoresed gel using Image Lab 4.1 software, version 6.1.0. (Bio-Rad, Hercules, CA, USA).
# [11] = system: bovine serum albumin (BSA); assay: Protein oxidation produced by AAPH (SDS-PAGE); details: AAPH 20 mM, 30 min
# Description: The mixture was then incubated in a shaking water bath for 30 min at 37 °C. A control sample not including AAPH was also prepared. After incubation, the mixture was loaded onto an SDS-PAGE 10% gel under reduction conditions for 5 min at 100 °C. Images of the stained gel were captured using a Chemi-Doc MV gel documentation system (Bio-Rad, Hercules, CA, USA). The intensity of the bands was determined to quantify the aggregate of protein damage for all bands employing Image Lab 4.1 Software version 6.1.0 (Bio-Rad, Hercules, CA, USA). […] The use of SDS-PAGE and staining methods provides a visual representation of the extent of protein damage and allows for quantification of the results.
# acetylcholinesterase = acetylcholinesterase (Homo sapiens, UniProt P22303); assay: Acetylcholinesterase inhibition assay; assay type: biochemical
# Description: The mixture was then incubated at room temperature for 15 min. After this, 475 µL of 3 mM DTNB solution and 75 µL of […] 15 mM were added to the mixture and incubated for an additional 30 min at room temperature. Finally, the absorbance of the mixture was measured at 405 nm, and the percentage of inhibition activity of acetylcholinesterase was calculated by Equation (1), as explained earlier.
# [12] = system: Candida albicans (ATCC 10231); assay: Agar-well diffusion susceptibility test; assay type: cell-based; details: C. albicans; Control 2 for yeast, 10 mg/disc
# Description: as §1
# [13] = highest concentration tested (5 mg/mL)
# Sequence of acetylcholinesterase (P22303 32-614, species assumed): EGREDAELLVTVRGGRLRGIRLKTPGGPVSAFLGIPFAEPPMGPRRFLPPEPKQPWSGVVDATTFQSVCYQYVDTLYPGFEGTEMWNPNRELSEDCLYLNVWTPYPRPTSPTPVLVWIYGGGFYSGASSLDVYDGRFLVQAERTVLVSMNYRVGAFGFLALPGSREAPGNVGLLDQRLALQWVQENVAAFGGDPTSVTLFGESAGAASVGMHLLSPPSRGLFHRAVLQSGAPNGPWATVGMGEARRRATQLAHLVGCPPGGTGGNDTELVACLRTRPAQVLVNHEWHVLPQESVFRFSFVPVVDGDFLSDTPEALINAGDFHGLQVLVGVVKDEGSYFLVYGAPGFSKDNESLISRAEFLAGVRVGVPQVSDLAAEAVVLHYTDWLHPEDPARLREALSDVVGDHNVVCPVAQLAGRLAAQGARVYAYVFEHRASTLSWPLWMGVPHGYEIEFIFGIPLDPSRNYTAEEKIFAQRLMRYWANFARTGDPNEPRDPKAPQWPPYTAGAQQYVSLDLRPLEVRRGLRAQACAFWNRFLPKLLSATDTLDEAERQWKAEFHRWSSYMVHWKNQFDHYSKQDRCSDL
smiles,measurement,setting,value
"O=c1cc(CO)occ1O [Kojic Acid, kojic acid]",tyrosinase inhibition,mushroom tyrosinase,99.88 ± 0.11%
CC1(C)S[C@@H]2[C@H](NC(=O)[C@H](N)c3ccccc3)C(=O)N2[C@H]1C(=O)O [ampicillin],inhibition-zone diameter,"[1]; Control 2, 10 mg/disc",−ve
same,inhibition-zone diameter,"[2]; Control 2, 10 mg/disc",13.20 ± 0.68 mm
same,inhibition-zone diameter,"[3]; Control 2, 10 mg/disc",10.00 ± 0.80 mm
same,inhibition-zone diameter,"[4]; Control 2, 10 mg/disc",−ve
same,inhibition-zone diameter,"[5]; Control 2, 10 mg/disc",18.00 ± 1.48 mm
"O=C1O[C@H]([C@@H](O)CO)C(O)=C1O [VC, vitamin C]",DPPH antioxidant inhibition activity IC50,[6],881.70 ± 13.38 µg/mL
same,ABTS maximum antioxidant activity,[7],90.13 ± 0.04%
same,maximum FRAP value,[8],"10,233.67 ± 243.72 µmol of Fe (II)"
same,FRAP antioxidant inhibition activity IC50,[8],743.60 ± 30.11 µg/mL
same,maximum total antioxidant capacity value (absorbance at 695 nm),[9],0.041 ± 0.000
same,Total Antioxidant Capacity IC50,[9],3005.00 ± 72.45 µg/mL
same,NO-scavenging maximum inhibition,[10],56.55 ± 1.52%
same,Nitric Oxide scavenging IC50,[10],2710.00 ± 13.35 µg/mL
same,tyrosinase inhibition,mushroom tyrosinase,98.72 ± 0.15%
same,Tyrosinase inhibition activity IC50,mushroom tyrosinase,1881.00 ± 48.56 µg/mL
same,α-amylase activity inhibition,porcine α-amylase; [13],93.18 ± 0.18%
same,Porcine α-amylase inhibition activity IC50,"porcine α-amylase; mean ± SD, n = 3",97.62 ± 8.14 µg/mL
same,DNA damage inhibition activity IC50,plasmid pBR322 DNA,505.00 ± 21.63 µg/mL
same,BSA damage inhibition activity IC50,[11],25.32 ± 1.29 µg/mL
"C[C@@H]1O[C@@H](OC[C@H]2O[C@@H](Oc3c(-c4ccc(O)c(O)c4)oc4cc(O)cc(O)c4c3=O)[C@H](O)[C@@H](O)[C@@H]2O)[C@H](O)[C@H](O)[C@H]1O [Rutin, rutin]",DPPH antioxidant inhibition activity IC50,[6],417.80 ± 5.78 µg/mL
same,ABTS maximum antioxidant activity,[7],92.69 ± 0.32%
same,ABTS antioxidant inhibition activity IC50,"[7]; wet basis, mean ± SD, n = 3",6.50 ± 0.08 µg/mL
same,maximum FRAP value,[8],"10,644.00 ± 86.02 µmol of Fe (II)"
same,FRAP antioxidant inhibition activity IC50,[8],391.00 ± 7.46 µg/mL
same,maximum total antioxidant capacity value (absorbance at 695 nm),[9],1.57 ± 0.01
same,Total Antioxidant Capacity IC50,[9],"17,600 ± 41.64 µg/mL"
same,NO-scavenging maximum inhibition,[10],79.01 ± 0.07%
same,Nitric Oxide scavenging IC50,[10],270.10 ± 3.51 µg/mL
same,tyrosinase inhibition,mushroom tyrosinase,55.00 ± 0.23%
same,Tyrosinase inhibition activity IC50,mushroom tyrosinase,494.40 ± 27.86 µg/mL
same,IC50,porcine α-amylase,142 µM
same,inhibition at 5000 µg/mL,porcine α-amylase; [13],91.51 ± 0.51%
same,IC50,acetylcholinesterase,1490 µM
same,inhibition at 5000 µg/mL,"acetylcholinesterase; highest concentration tested (5 mg/mL), read-out: AChE activity inhibition",15.92 ± 0.13%
same,DNA damage inhibition activity IC50,plasmid pBR322 DNA,15.00 ± 0.22 µg/mL
same,BSA damage inhibition activity IC50,[11],3.68 ± 0.35 µg/mL
CC1(C)S[C@@H]2[C@H](NC(=O)[C@H](N)c3ccc(O)cc3)C(=O)N2[C@H]1C(=O)O [amoxicillin],inhibition-zone diameter,"[1]; Control 1, 25 mg/disc",25.00 ± 2.40 mm
same,inhibition-zone diameter,"[2]; Control 1, 25 mg/disc",28.00 ± 2.76 mm
same,inhibition-zone diameter,"[3]; Control 1, 25 mg/disc",30.00 ± 1.30 mm
same,inhibition-zone diameter,"[4]; Control 1, 25 mg/disc",−ve
same,inhibition-zone diameter,"[5]; Control 1, 25 mg/disc",37.00 ± 2.80 mm
C[C@@H]1[C@H](O)[C@@H](C)/C=C/C=C/C=C/C=C/C=C/C=C/C=C/[C@H](O[C@@H]2O[C@H](C)[C@@H](O)[C@H](N)[C@@H]2O)C[C@@H]2O[C@](O)(C[C@@H](O)C[C@@H](O)[C@H](O)CC[C@@H](O)C[C@@H](O)CC(=O)O[C@H]1C)C[C@H](O)[C@H]2C(=O)O [amphotericin-B],inhibition-zone diameter,[12],25.50 ± 2.30 mm
"C[C@H]1O[C@H](O[C@H]2[C@H](O)[C@@H](O)[C@@H](O[C@H]3[C@H](O)[C@@H](O)C(O)O[C@@H]3CO)O[C@@H]2CO)[C@H](O)[C@@H](O)[C@@H]1N[C@H]1C=C(CO)[C@@H](O)[C@H](O)[C@H]1O (some centres unmarked) [Acarbose, acarbose]",inhibition at 5000 µg/mL,porcine α-amylase; [13],99.12 ± 0.1%
